We go through one molecule from patent publication US9434701B2, “Aminoquinoxaline derivatives for treatment of neurodegenerative diseases” (CENTRE NATIONAL DE LA RECHERCHE SCIENTIFIQUE (CNRS), priority 2011, dated 2016).

Series [1] in a line: influence of time before euthanasia, IP route: brain extract and plasma concentration. The series is classed as in vivo, C57BL\6J mice. The following applies: IP 70 mg/kg. As for the experimental part:
(§1) This study was done on C57BL\6J (instead of RjOrl:SWISS) mice treated with compound 4bc by IP or per os.
IP Route • Mice treated by IP route received a treatment of 70 mg/kg to […] of a solution of compound 4bc over 2 days comprising 2 IP injections the first day and 1 IP injection the second day.

Series [2] concerns dopaminergic fibers in the striatum and dopaminergic neurons in the substantia nigra. Kind of series: neuroprotection in mice lesioned by intranasal MPTP (animal model of Parkinson's disease), TH immunohistochemistry. The series is classed as in vivo. The following applies: oral 150 mg/kg twice daily 2 days then 75 mg/kg once daily. The text has this:
The goal of this study is to test by an […] study the neuroprotective activity of compound 4bc administered orally to a mouse after it is poisoned by intranasal administration of MPTP. The food intake and weight of the animals were also compared to a control group. The densitometric analysis of striatal fibers and count of dopaminergic cell bodies in the substantia nigra, after immunohistochemical marking of tyrosine hydroxylase enabled quantifying the neuroprotective effect of the compound.
30 male C57BL\6J mice aged 3 months (supplier: Janvier Breeding Center) were used during this study.
Compound 4bc was administered orally at a dose of 150 mg/kg to 10 mL/kg, twice daily for two days, and then 75 mg/kg once daily. The carrier was composed of 0.5% Tween 80+99.5% carboxymethylcellulose (at 1% in water). A curved rigid tube connected to a 1 mL Terumo syringe was used for administration.
MPTP, a toxin specific for dopaminergic neurons was administered intranasally. One mg (10 μl) of MPTP/HCl (Sigma) dissolved in a 0.9% NaCl solution was delivered per nostril with a 3-minute interval between the two nostrils. […]
To quantify the neuroprotective capacity of compound 4bc, an immunohistochemistry study was done on floating brain slices. Two brain anatomic structures were analyzed: the striatum (20 μm slices, 10 levels) and the substantia nigra (20 μm slices, 7 levels). […]

A short description of series [3]: influence of time before euthanasia, per os route: brain extract and plasma concentration. The series is classed as in vivo, C57BL\6J mice. The protocol:
as §1
Mice treated per os received a treatment of 150 mg/kg to 10 mL/kg of a solution of compound 4bc over 5 days comprising twice daily administrations for 4 days and a once daily administration the last day.

Where [4] appears, read: per os 150 mg/kg, approximately 1 h 30 min.
The mark [5] stands for this setting: per os 150 mg/kg, approximately 2 h.
[6] abbreviates: per os 150 mg/kg, approximately 2 h 25 min.

Each structure is given as a SMILES string.

Consider `Cc1nc2ccc(N)cc2nc1-c1ccccc1` [Compound 4bc], for which the concentration at 1 h in series [1] (C57BL\6J, mouse, brain extract, 3 injections over 2 days, euthanasia approximately 1 h after last treatment) was 1000 ng/mL; in series [3] (C57BL\6J, mouse, brain extract, oral, per os 150 mg/kg over 5 days, approximately 1 h after last treatment) it was 2200 ng/mL. Moreover, the Brain extract concentration in series [1] (3 injections over 2 days, euthanasia approximately 1 h after last treatment) was 1 µg/mL; in series [1] (approximately 1 h 30 min), 0.74 µg/mL; in series [1] (approximately 1 h 55 min), 0.1 µg/mL; in series [1] (approximately 2 h 20 min) it was 0.09 µg/mL; in series [3] (per os 150 mg/kg over 5 days, approximately 1 h after last treatment), 2.2 µg/mL; in series [3] (setting [4]), 0.2 µg/mL. For the same molecule, the Brain extract concentration in series [3] (setting [5]) is 0.1 µg/mL; in series [3] (setting [6]) it was 0.05 µg/mL. Moreover, the Plasma concentration in series [1] (approximately 1 h) turned out to be 1200 ng/mL; in series [1] (approximately 1 h 30 min), 3100 ng/mL; in series [1] (approximately 1 h 55 min), 1700 ng/mL; in series [3] (per os 150 mg/kg, approximately 1 h), 11600 ng/mL; in series [3] (setting [4]), 700 ng/mL; in series [3] (setting [5]), 40 ng/mL. The same molecule came in with a Plasma concentration in series [3] (setting [6]) of 400 ng/mL. Also, the “neuroprotective activity on dopaminergic fibers in vivo (FIGS. 9 and 10)” value in series [2] (intranasal MPTP, Mann-Whitney test) was “significant neuroprotective activity”. Moreover, the “mild toxicity in animals who received only the compound (T/NL)” value in series [2] (not lesioned) is on record as “not significant”. In series [3] (oral administration), the “crossing of the blood-brain barrier in vivo” value is recorded as “able to cross the mouse or rat blood-brain barrier”.
